#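 Cells were grown in 96-well plates and exposed to each compound for 48 hours at five concentrations; endpoints were interpolated linearly between bracketing concentrations, or set to the highest concentration if not reached. GI50 = concentration required for 50% inhibition of growth.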 Active and inactive are the calls of the source. Rule as the data show it: active = GI50 up to about 1.1 µM and inactive = higher.
# Assays:
# Experiment in all cases: NCI-60 cell line screen, 48 h
# [1] = tested on: MCF7
# [2] = tested on: MDA-MB-231
# [3] = tested on: NCI-H226
# [4] = tested on: BT-549
# [5] = tested on: UACC-62
# [6] = tested on: NCI-H460
# [7] = tested on: U-251
# [8] = tested on: MDA-N
# [9] = tested on: ACHN
# [10] = tested on: M14
# [11] = tested on: CAKI-1
# [12] = tested on: LOX IMVI
# [13] = tested on: OVCAR-5
# [14] = tested on: OVCAR-4
# [15] = tested on: Malme-3M
# [16] = tested on: KM12
# [17] = tested on: MOLT-4
# [18] = tested on: HCC 2998
# [19] = tested on: HCT-15
# [20] = tested on: MDA-MB-435
SMILES,GI50 [1],GI50 [2],GI50 [3],GI50 [4],GI50 [5],GI50 [6],GI50 [7],GI50 [8],GI50 [9],GI50 [10],GI50 [11],GI50 [12],GI50 [13],GI50 [14],GI50 [15],GI50 [16],GI50 [17],GI50 [18],GI50 [19],GI50 [20]
Oc1ncc(Cl)c(O)n1,> 100 µM (inactive),> 100 µM (inactive),> 100 µM (inactive),> 100 µM (inactive),> 100 µM (inactive),> 100 µM (inactive),> 100 µM (inactive),> 100 µM (inactive),> 100 µM (inactive),> 100 µM (inactive),> 100 µM (inactive),> 100 µM (inactive),> 100 µM (inactive),> 100 µM (inactive),> 100 µM (inactive),> 100 µM (inactive),> 100 µM (inactive),> 100 µM (inactive),> 100 µM,> 100 µM (inactive)
CCOC(=O)/C(=C\c1ccc(C#N)cc1)C(C)=O,19.9 µM (inactive),15.6 µM (inactive),35.1 µM (inactive),13.5 µM (inactive),2.23 µM (inactive),28.8 µM (inactive),16.2 µM (inactive),31.1 µM (inactive),23.6 µM (inactive),30 µM (inactive),22.2 µM (inactive),19.9 µM (inactive),30.8 µM (inactive),23.3 µM (inactive),15.2 µM (inactive),18.6 µM (inactive),25.5 µM (inactive),5.92 µM (inactive),18.2 µM,26.8 µM (inactive)
O=C1N/C(=N/N=C\C(O)C(O)C(O)C(O)CO)N/C1=C\c1ccc(Cl)cc1 (stereo not given),4.3 µM (inactive),4.81 µM (inactive),3 µM (inactive),5.52 µM (inactive),0.571 µM (active),15.7 µM (inactive),2.15 µM (inactive),0.968 µM (active),21.9 µM (inactive),3.1 µM (inactive),> 57.7 µM (inactive),5.5 µM (inactive),19.5 µM (inactive),7.46 µM (inactive),2.76 µM (inactive),22.1 µM (inactive),3.9 µM (inactive),12.4 µM (inactive),> 86.5 µM,7.14 µM (inactive)
Cc1cc(O)c2c(c1)C(=O)C(c1c(C)cc3c(c1O)C(=O)C1OC1C3=O)=CC2=O (stereo not given),1.84 µM (inactive),2.03 µM (inactive),16.1 µM (inactive),2.4 µM (inactive),2.04 µM (inactive),7.87 µM (inactive),6.9 µM (inactive),1.27 µM (inactive),0.885 µM (active),2.96 µM (inactive),0.796 µM (active),2.02 µM (inactive),5.27 µM (inactive),3.33 µM (inactive),1.73 µM (inactive),13.7 µM (inactive),0.147 µM (active),5.93 µM (inactive),1.16 µM,2.54 µM (inactive)
C[S+]([O-])c1ncc2c(n1)-c1ccccc1OC2 (stereo not given),38.5 µM (inactive),> 100 µM (inactive),> 100 µM (inactive),> 100 µM (inactive),92.3 µM (inactive),> 100 µM (inactive),> 100 µM (inactive),> 100 µM (inactive),92.5 µM (inactive),> 100 µM (inactive),83.8 µM (inactive),> 100 µM (inactive),> 100 µM (inactive),85.9 µM (inactive),> 100 µM (inactive),> 100 µM (inactive),> 100 µM (inactive),38.4 µM (inactive),88.1 µM,> 100 µM (inactive)
C=C1C(=O)OC2/C=C(\CO)C3OC3C3OC3(C)CC(OC(=O)/C(=C/C)COC(C)=O)C12 (stereo not given),3.94 µM (inactive),6.04 µM (inactive),21.6 µM (inactive),1.77 µM (inactive),2.86 µM (inactive),12.2 µM (inactive),5 µM (inactive),3.58 µM (inactive),3.4 µM (inactive),2.75 µM (inactive),1.95 µM (inactive),1.51 µM (inactive),15.3 µM (inactive),8.3 µM (inactive),1.67 µM (inactive),7.31 µM (inactive),7.89 µM (inactive),16.5 µM (inactive),2.12 µM,2.59 µM (inactive)
Cc1nc(-c2cccnc2)sc1C(=O)CC(=O)C(=O)Nc1cccc(NC(=O)C(=O)CC(=O)c2sc(-c3cccnc3)nc2C)n1,> 100 µM (inactive),> 100 µM (inactive),> 100 µM (inactive),> 100 µM (inactive),> 100 µM (inactive),> 100 µM (inactive),> 100 µM (inactive),> 100 µM (inactive),> 100 µM (inactive),> 100 µM (inactive),> 100 µM (inactive),> 100 µM (inactive),> 100 µM (inactive),> 100 µM (inactive),> 100 µM (inactive),> 100 µM (inactive),> 100 µM (inactive),> 100 µM (inactive),> 100 µM,> 100 µM (inactive)
Cc1oc2c(c1C)S(=O)(=O)C(C#N)=C(c1ccccc1)N2,> 100 µM (inactive),> 100 µM (inactive),> 100 µM (inactive),> 100 µM (inactive),> 100 µM (inactive),> 100 µM (inactive),> 100 µM (inactive),> 100 µM (inactive),> 100 µM (inactive),> 100 µM (inactive),> 100 µM (inactive),> 100 µM (inactive),> 100 µM (inactive),> 100 µM (inactive),63.5 µM (inactive),> 100 µM (inactive),> 100 µM (inactive),> 100 µM (inactive),> 100 µM,> 100 µM (inactive)
S=c1sc2nc(Cl)nc(Cl)c2s1,8.49 µM (inactive),9.02 µM (inactive),17.5 µM (inactive),8.87 µM (inactive),13 µM (inactive),14.2 µM (inactive),7.8 µM (inactive),7.98 µM (inactive),13.9 µM (inactive),4.16 µM (inactive),7.52 µM (inactive),9.14 µM (inactive),15.7 µM (inactive),16.6 µM (inactive),8.83 µM (inactive),7.85 µM (inactive),0.822 µM (active),15.3 µM (inactive),13.2 µM,7.94 µM (inactive)
C#CCSc1cnc2ccccc2c1Sc1c[nH]c2ccccc2c1=O,6.82 µM (inactive),31.9 µM (inactive),21 µM (inactive),28.7 µM (inactive),17.1 µM (inactive),11.7 µM (inactive),15 µM (inactive),18.1 µM (inactive),13.6 µM (inactive),17 µM (inactive),23.7 µM (inactive),13.8 µM (inactive),32.7 µM (inactive),20.9 µM (inactive),19.4 µM (inactive),21.1 µM (inactive),4.53 µM (inactive),17.9 µM (inactive),16.1 µM,23.6 µM (inactive)
CC1OC(OC2C(O[C@@H]3C[C@@H]4CC[C@@H]5[C@H](CC[C@]6(C)C7C(C[C@@H]56)O[C@]5(CC[C@@H](C)CO5)[C@H]7C)[C@@]4(C)C[C@H]3O)OC(CO)C(O)C2O)C(O)C(O)C1O (stereo not given in full),1.85 µM (inactive),1.78 µM (inactive),2.84 µM (inactive),1.93 µM (inactive),1.74 µM (inactive),1.92 µM (inactive),1.68 µM (inactive),2.47 µM (inactive),1.75 µM (inactive),1.79 µM (inactive),2.06 µM (inactive),1.78 µM (inactive),1.57 µM (inactive),2.23 µM (inactive),1.82 µM (inactive),2.32 µM (inactive),1.86 µM (inactive),1.82 µM (inactive),1.87 µM,1.8 µM (inactive)
O=C(N/N=C/c1ccc2c(c1)OCO2)Nc1ccccc1Cl,0.469 µM (active),4.7 µM (inactive),4.19 µM (inactive),1.85 µM (inactive),0.762 µM (active),0.65 µM (active),2.68 µM (inactive),0.161 µM (active),7.43 µM (inactive),0.671 µM (active),4.18 µM (inactive),2.95 µM (inactive),8 µM (inactive),10 µM (inactive),0.946 µM (active),0.598 µM (active),0.462 µM (active),0.361 µM (active),0.418 µM,0.171 µM (active)
COC(=O)CNC(=O)CCC(C)[C@H]1CCC2C3C(C[C@H](OC(C)=O)[C@@]21C)[C@@]1(C)CCC2(C[C@H]1C[C@H]3OC(C)=O)OOC1(CCCCC1)OO2 (stereo not given in full),3.26 µM (inactive),1.64 µM (inactive),2.1 µM (inactive),1.69 µM (inactive),9.12 µM (inactive),1.76 µM (inactive),1.76 µM (inactive),1.74 µM (inactive),1.89 µM (inactive),3.91 µM (inactive),2.02 µM (inactive),2.12 µM (inactive),2.6 µM (inactive),1.83 µM (inactive),3.37 µM (inactive),2.01 µM (inactive),3.55 µM (inactive),2 µM (inactive),2.7 µM,2.07 µM (inactive)
COc1cccc(-c2cc(=O)c3ccccc3o2)c1N,> 100 µM (inactive),26.9 µM (inactive),63 µM (inactive),> 100 µM (inactive),5.27 µM (inactive),> 59 µM (inactive),> 100 µM (inactive),24.4 µM (inactive),> 100 µM (inactive),5.56 µM (inactive),> 100 µM (inactive),> 100 µM (inactive),> 91 µM (inactive),84.3 µM (inactive),3.62 µM (inactive),> 100 µM (inactive),> 100 µM (inactive),28.2 µM (inactive),> 100 µM,23 µM (inactive)

# Reference: ChEMBL document CHEMBL1201862, “PubChem BioAssay data set” (2004)
